# Assay results from patent publication US20240425541A1, “OLIGOSACCHARIDE COMPOUNDS AND COMPLEXES” (priority 2021, published 2024).
# Legend:
# [1] = Hydrodynamic diameter of complexes by dynamic light scattering (DLS); format: physicochemical
# Description: Sizes of complexes described in the present examples were analyzed by DynaPro PlateReader II, using dynamic light scattering (DLS) for calculating the hydrodynamic diameter of complexes. The formulations are measured by diluting the sample to 0.0125 mg/mL RNA in 120 μl of MGB (10 mM MES, pH 6.1, 5% D-Glucose) 5% in wells of a 96-well plate. Ten acquisitions are recorded per well, each lasting 5 seconds.
# [2] = test system: CCHFV-Gc peptides; format: in vivo, Crimean-Congo Hemorrhagic Fever Virus; conditions: JLF99 + Tween40 1:0.5, Gc saRNA 1.3 μg i.m. prime/boost, C57BL/6 IFNAR −/− mice
# [3] = test system: hPBMCs; experiment: Pro-inflammatory cytokine secretion by hPBMCs 24 hours after transfection (MSD Kit); format: cell-based, human; conditions: for Level of secretion of pro-inflammatory cytokines, IL-6, TNF-α, IL-1 and IFN-γ: oligosaccharide + Tween40 1:0.5, modRNA N/P 6, 24 hours, 10^6 hPBMCs
# Description: All groups received modRNA formulated at N/P 6. Formulations were complexed with RNA in MBG Buffer (final concentration 5% w/v Glucose, 10 mM MES, pH 6.1), at RNA final concentration of 0.15 mg/ml and the mixing ratio of the RNA containing solution and the oligosaccharide+Tween40 containing solution was 9:1 (v:v) for all the cases. IL-6, TNF-α, IL-1p and IFN-γ secretion after 24 hours of transfection of 10^6 hPMBCs was evaluated in the supernatants using MSD Kit Standard Protocol.
# FIG. 19A is a plot illustrating IL-6 secretion by hPBMCs upon exposure to different doses of tested formulations. FIG. 19B is a plot illustrating TNF-α secretion by hPBMCs upon exposure to different doses of tested formulations. FIG. 19C is a plot illustrating IL-1p secretion by hPBMCs upon exposure to different doses of tested formulations. FIG. 19D is a plot illustrating IFN-γ secretion by hPBMCs upon exposure to different doses of tested formulations. In the second part of the experiment, the same tested formulations were used in a vaccination study.
# [4] = test system: Influenza HA peptides; experiment: CD4/CD8 T-Cell response to Influenza HA peptides by IFN-ELISPOT of splenocytes after i.m. vaccination; format: in vivo, influenza strain California/7/2009; conditions: JLF99 + Tween20 1:0.5, HA modRNA 1 μg i.m. prime/boost d0/d28, N/P 6
# [5] = test system: Hemagglutinin (HA) protein of the influenza strain California/7/2009; experiment: Anti-Influenza HA IgG in serum by enzyme-linked immunosorbent assay after i.m. vaccination; format: in vivo; conditions: for IgG concentration against HA: oligosaccharide + Tween40 1:0.5, HA modRNA 0.5 μg i.m. prime/boost day 0/day 28, N/P6
# [6] = test system: Influenza; experiment: Virus neutralizing titers by VNT Assay after i.m. vaccination; format: in vivo, influenza strain California/7/2009; conditions: JLF99 + Tween20 1:0.5, HA modRNA 1 μg i.m. prime/boost d0/d28, N/P 6
# Description: The animals were subjected to non-invasive serological surveillance over 49 days at different time points (day 0, day 14, day 21, day 28, day 49) and spleen was extracted at the end of the experiment for quantification of CD4/CD8 T-Cell response to Influenza HA peptides. Anti-Influenza HA antibodies in serum were quantified by enzyme-linked immunosorbent assay. Virus neutralizing titers were quantified by VNT Assay. CD4/CD8 T-Cell response was quantified by via IFN-ELISPOT of Splenocytes. FIG. 16A illustrates serological levels of specific IgG against HA over the course of the experiment. FIG. 16B illustrates Influenza specific neutralizing titers over the course of the experiment. FIG. 16C illustrates end-point titration of the serological levels of specific IgG against HA. FIG. 16D illustrates the CD8/CD4 response against HA-peptide pools.
# [7] = test system: female BALB/c mice; experiment: In-vivo luciferase expression (bioluminescence) in applied tissue after i.m. injection of formulated modRNA or saRNA; conditions: modRNA i.m., N/P 6
# Description: Eighteen female BALB/c mice were divided into […] study groups. All groups received the same amount of formulated luciferase encoding modRNA or saRNA (1 μg), applied i.m. to each leg. At […] time points (6 hours, 24 hours, 72 hours, 6 days, 8 days, 20 days), in-vivo luciferase expression in applied tissue was measured. Three modRNA groups were formulated with JRL13 at three different N/P Ratios (1, 6, or 12) and three saRNA groups were formulated with JRL13 at three different N/P Ratios (either 1, 6 or 12). N/P ratio is calculated based on the JRL13-RNA charges ratio, as described herein. […] FIG. 4C is a bar graph illustrating quantified bioluminescence over the duration of the experiment for example compositions having indicated N/P ratios comprising modRNA and JRL13. FIG. 4D is a bar graph illustrating quantified bioluminescence over the duration of the experiment for example compositions having indicated N/P ratios comprising saRNA and JRL13.
# The present example examines the impact of different cationic groups on intramuscular delivery of saRNA. […] At six time points (6 hours, 24 hours, 72 hours, 6 days, 9 days, 20 days), in-vivo luciferase expression in applied tissue was measured. […] FIG. 5B is a bar graph illustrating quantified bioluminescence over the duration of the experiment and normalized to the JRL13-saRNA group. […]
# [8] = test system: Glycoprotein (Gc) of the Crimean-Congo Hemorrhagic Fever Virus (CCHFV); format: in vivo
# [9] = JLF99 + Tween20 1:0.5, HA modRNA 1 μg i.m. prime/boost d0/d28, N/P 6
compound,measurement,setting,value
CCCCCCCCCC(=O)OC1C(OC(=O)CCCCCCCCC)[C@H](OC(=O)CCCCCCCCC)C(CSCCNC(=S)NCCN(C)C)O[C@@H]1O[C@H]1OC(CSCCNC(=S)NCCN(C)C)[C@@H](OC(=O)CCCCCCCCC)C(OC(=O)CCCCCCCCC)C1OC(=O)CCCCCCCCC (stereo partly drawn) [JLF41],Difference in particle size between N/P 1 and N/P 6,[1]; modRNA,greater difference
CCCCCCCCCC(=O)OC1C(OC(=O)CCCCCCCCC)[C@H](OC(=O)CCCCCCCCC)C(CSCCNC(=S)NCCN2CCOCC2)O[C@@H]1O[C@H]1OC(CSCCNC(=S)NCCN2CCOCC2)[C@@H](OC(=O)CCCCCCCCC)C(OC(=O)CCCCCCCCC)C1OC(=O)CCCCCCCCC (stereo partly drawn) [JLF99],T-cell responses against Gc-peptides versus LNP benchmark,[2],equally strong
same,Adjuvanticity,"[3]; oligosaccharide + Tween40 1:0.5, modRNA N/P 6",strong adjuvanticity
same,Hydrodynamic diameter,"[1]; saRNA, N/P 6",about 150 nm
same,CD4-CD8 response versus LNP benchmark,[4],no significant difference
same,IgG against HA-antigen over the course of the experiment versus LNP benchmark,[5]; [9],no apparent differences
same,Serological concentration of IgG at the end-point (day 49),[5]; [9],comparable to the LNP group
same,Delivery of and immune response to different RNA platforms,"[5]; JLF99 + Tween20 1:0.5, taRNA, saRNA or modRNA 1 μg i.m. prime/boost, N/P 6",functionally delivered all the RNAs upon i.m injection and elicited a strong immune response
same,IgG concentration against HA,[5],then by JLF99 and JLF218
same,Virus neutralizing titers versus LNP benchmark,[6],same findings
same,modRNA expression (bioluminescence normalized to the JLF41-modRNA group),[7],promising modRNA expression
same,Immunological response to low immunogenic antigen CCHFV-Gc,"[8]; JLF99 + Tween40 1:0.5, Gc saRNA 1.3 μg i.m. prime/boost d0/d28, N/P6, C57BL/6 IFNAR −/− mice",strong immunological response
same,Antibody levels versus LNP benchmark,"[8]; after d28 (prior boost), JLF99 + Tween40 1:0.5, Gc saRNA 1.3 μg i.m., C57BL/6 IFNAR −/− mice",identical to the ones achieved by the LNP benchmark
same,Antibody level versus LNP benchmark,"[8]; d14, JLF99 + Tween40 1:0.5, Gc saRNA 1.3 μg i.m., C57BL/6 IFNAR −/− mice",lower than the LNP
CCCCCCCCCC(=O)OC1C(OC(=O)CCCCCCCCC)[C@H](OC(=O)CCCCCCCCC)C(CSCCNC(=S)NCCn2ccnc2)O[C@@H]1O[C@H]1OC(CSCCNC(=S)NCCn2ccnc2)[C@@H](OC(=O)CCCCCCCCC)C(OC(=O)CCCCCCCCC)C1OC(=O)CCCCCCCCC (stereo partly drawn) [JLF110],"Level of secretion of pro-inflammatory cytokines, IL-6, TNF-α, IL-1 and IFN-γ",[3],medium levels of secretion
CCCCCCCCCC(=O)OC[C@@]1(O[C@H]2OC(CSCCNC(=S)NCCN3CCOCC3)[C@@H](OC(=O)CCCCCCCCC)C(OC(=O)CCCCCCCCC)C2OC(=O)CCCCCCCCC)O[C@H](CSCCNC(=S)NCCN2CCOCC2)[C@@H](OC(=O)CCCCCCCCC)[C@@H]1OC(=O)CCCCCCCCC (stereo partly drawn) [JLF218],IgG concentration against HA,[5],then by JLF99 and JLF218
CCCCCCCCCC(=O)OC1C(OC(=O)CCCCCCCCC)[C@H](OC(=O)CCCCCCCCC)C(CSCCNC(=S)NCCN2CCC(C(N)=O)CC2)O[C@@H]1O[C@H]1OC(CSCCNC(=S)NCCN2CCC(C(N)=O)CC2)[C@@H](OC(=O)CCCCCCCCC)C(OC(=O)CCCCCCCCC)C1OC(=O)CCCCCCCCC (stereo partly drawn) [JLF244],"Level of secretion of pro-inflammatory cytokines, IL-6, TNF-α, IL-1 and IFN-γ",[3],highest level of secretion
same,IgG concentration against HA,[5],highest IgG concentration
